Tests used:
[1] = cited from earlier work
Caco-2 cells [2] = conditions: cited from earlier work
Caco-2 cells [3] = conditions: 10 μM, 2 h

SMILES | membrane permeability in the apical to basolateral (A→B) direction, in words (Caco-2 cells [3]) | also measured
Nc1ccccn1 [2-aminopyridine] | – | pKa [1]: 7.1
Cl.Cl.N=C(Nc1cccc(CNCCc2cccc(F)c2)c1)c1cccs1 [Compound 3] | – | Caco-2 permeability, in words (Caco-2 cells [2]): poor
Cl.Cl.Nc1ccc2ccc(CCNCCc3cccc(F)c3)cc2n1 [Compound 7, 7-[(3-Fluorophenethylamino)ethyl]quinolin-2-amine Dihydrochloride] | good | –
Cl.Cl.Cl.Nc1ccc2ccc(CCNCCc3cccc(Cl)c3)cc2n1 [Compound 15, 7-[(3-Chlorophenethylamino)ethyl]quinolin-2-amine Dihydrochloride] | good | –

From publication PMC3954451 (Journal of Medicinal Chemistry, 2014)
